Columns and labels:
CCRF-CEM [1] = test: Concentration required to reduce 50% of the number of CEM/O cells in the HIV-2 infected cell cultures.; assay type: functional, cell-based; settings: Homo sapiens
[2] = Selectivity index in the HIV-1 infected cell cultures.; assay type: functional
CCRF-CEM [3] = test: Concentration required to reduce 50% of the number of CEM/O cells in the mock infected cell cultures.; assay type: functional; settings: Homo sapiens
CEM-TK(+) = test: Concentration required to reduce 50% of the number of CEM/TK cells in the HIV-2 infected cell cultures.; assay type: functional, cell-based; settings: Homo sapiens
CCRF-CEM [4] = test: Concentration required to reduce 50% of the number of CEM/O cells in the HIV-1 infected cell cultures.; assay type: functional, cell-based; settings: Homo sapiens

| Structure (SMILES) | EC50 (CCRF-CEM [1]) | EC50 (CEM-TK(+)) | EC50 (CCRF-CEM [4]) | SI [2] | CC50 (CCRF-CEM [3]) |
| --- | --- | --- | --- | --- | --- |
| Cc1cn(C2CC(N=[N+]=[N-])C(COP(=O)(O)OCCOc3cccc4ccccc34)O2)c(=O)[nH]c1=O (stereo not drawn) | 0.028 µM | > 125 µM | 0.013 µM | >9615 | > 125 µM |
| CCCCCCCCCCCCO[C@@H](C)COP(=O)(O)OC[C@H]1O[C@@H](n2cc(C)c(=O)[nH]c2=O)C[C@@H]1N=[N+]=[N-] | 0.35 µM | > 50 µM | 0.32 µM | 295 | 94.5 µM |
| CCCCCCCCCCCCOC[C@@H](C)OP(=O)(O)OCC1OC(n2cc(C)c(=O)[nH]c2=O)CC1N=[N+]=[N-] (stereo partly drawn) | 2.67 µM | > 50 µM | 2.17 µM | 44 | 95.9 µM |
| Cc1cn(C2CC(N=[N+]=[N-])C(COP(=O)(O)OCCOc3ccc4ccccc4c3)O2)c(=O)[nH]c1=O (stereo not drawn) | 0.02 µM | > 125 µM | 0.015 µM | >8333 | > 125 µM |
| Cc1cn(C2CC(N=[N+]=[N-])C(COP(=O)(O)OCCOc3ccccc3)O2)c(=O)[nH]c1=O (stereo not drawn) | 0.018 µM | > 125 µM | 0.02 µM | >6250 | > 125 µM |
| CCCCCCCCCCCCO[C@H](C)COP(=O)(O)OCC1O[C@@H](n2cc(C)c(=O)[nH]c2=O)C[C@@H]1N=[N+]=[N-] (single isomer, unassigned) | 0.5 µM | > 50 µM | 0.5 µM | 186 | 93 µM |

More lines, main results first:

| EC50 (CCRF-CEM [1]) | EC50 (CEM-TK(+)) | EC50 (CCRF-CEM [4]) | Structure (SMILES) | SI [2] | CC50 (CCRF-CEM [3]) |
| --- | --- | --- | --- | --- | --- |
| 0.133 µM | > 50 µM | 0.115 µM | CCCCCCCCCCCCOCCOP(=O)(O)OCC1OC(n2cc(C)c(=O)[nH]c2=O)CC1N=[N+]=[N-] (stereo not drawn) | 669 | 76.9 µM |
| 0.26 µM | > 50 µM | 0.2 µM | CCCCCCCCCCCCOC[C@H](C)OP(=O)(O)OCC1OC(n2cc(C)c(=O)[nH]c2=O)CC1N=[N+]=[N-] (stereo partly drawn) | 440 | 88 µM |
|  | > 100 µM |  | Cc1cn([C@H]2C[C@H](N=[N+]=[N-])[C@@H](CO)O2)c(=O)[nH]c1=O [ZIDOVUDINE] | >16666 | > 100 µM |

Reference: ChEMBL document CHEMBL1129617, “Synthesis and antiretroviral evaluation of new alkoxy and aryloxy phosphate derivatives of 3'-azido-3'-deoxythymidine” (J Med Chem, 1996)
